The record followed here is US20230167105A1, “BCL-2 PROTEIN INHIBITORS” (Recurium IP Holdings, LLC, priority 2020, published 2023).

One assay has as its system MOLT-4 cells. Kind of assay: MOLT-4 Cell Proliferation Assay (CellTiter-Glo). The class given is cell-based. The note with it: Homo sapiens, 72 h, read-out: MOLT-4 CTG IC50. In a few lines: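 MOLT-4 cells at 50,000/well in serum-supplemented medium received a 10-point 1:3 dilution series (top 10 μM final, 0.1% DMSO) in duplicate for 72 h at 37 °C. Viability was read as CellTiter-Glo luminescence, and IC50 came from nonlinear regression.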

In another assay the target is T1, Bcl-xL (Homo sapiens, UniProt Q07817).
T1 construct: endogenous in cells; host or cells: MOLT-4 (ATCC CRL-1582)
T1 sequence (Q07817 whole entry): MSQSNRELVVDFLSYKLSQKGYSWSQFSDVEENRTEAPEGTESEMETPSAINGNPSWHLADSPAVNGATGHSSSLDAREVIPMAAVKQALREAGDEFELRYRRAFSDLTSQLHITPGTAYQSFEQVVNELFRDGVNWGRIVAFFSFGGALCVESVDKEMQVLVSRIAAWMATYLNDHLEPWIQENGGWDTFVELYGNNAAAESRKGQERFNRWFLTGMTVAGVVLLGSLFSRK
Kind of assay: Protein Degradation Assay in MOLT-4 Cells (Western blot). Format: cell-based. As to conditions: 50 nM compound, 16 hours, FIGS. 7 and 8. The method, then: MOLT-4 (ATCC, CRL-1582) (FIGS. 7,8) were incubated with vehicle or 50 nM concentrations of the indicated compounds for 16 hours. For proteasome inhibition, MOLT-4 cells (250,000 cells/well) were pretreated with 1 μM of MG132 for 1 hour before the addition of 100 nM of the indicated compounds for 16 h. After treatment, the cells were harvested in RIPA lysis buffer supplemented with 1% Phosphatase Inhibitor and Protease Inhibitor Cocktail. An equal amount of protein (10 μg/lane) from each cell extract was resolved on a 4-12% Bis-Tris gel. Proteins were transferred using iBlot 2 Transfer Stacks. The membranes were blocked with 5% nonfat milk in TBS-T buffer (50 mM Tris-HCL, pH 7.6; 150 mM NaCl; and 0.05% Tween) and probed with primary antibodies (1:1000 dilution) overnight at 4° C. After three washes with TBS-T (10 min/wash), the membranes were incubated with an appropriate peroxidase-conjugated secondary antibody (Cell Signaling Technology, USA) for 1 hour at rt. After three washes with TBS-T, the proteins of interest were detected with ECL Western Blotting Detection Reagents and captured with an Azure imaging system. The band intensities were determined using ImageJ software and normalized to loading control β-actin or GAPDH. The primary antibodies Bcl-xL (#2762), Bcl-2 (#2872s), and GAPDH (#5174) were purchased from Cell Signaling Technology.
For orientation: Immunoblotting shows a protein as a band on a membrane.

Each structure is given as a SMILES string.

Regarding `Cc1ncsc1-c1ccc([C@H](C)NC(=O)[C@@H]2C[C@@H](O)CN2C(=O)[C@@H](NC(=O)CCCCCC(=O)N(C)C2CCN(CC[C@H](CSc3ccccc3)Nc3ccc(S(=O)(=O)NC(=O)c4ccc(N5CCN(CC6=C(C78CC(C(F)F)(C7)C8)CC(C)(C)CC6)CC5)cc4)cc3S(=O)(=O)C(F)(F)F)CC2)C(C)(C)C)cc1` [Example 44, N1-(1-((R)-3-((4-(N-(4-(4-((2-(3-(difluoromethyl)bicyclo[1.1.1]pentan-1-yl)-4,4-dimethylcyclohex-1-en-1-yl)methyl)piperazin-1-yl)benzoyl)sulfamoyl)-2-((trifluoromethyl)sulfonyl)phenyl)amino)-4-(phenylthio)butyl)piperidin-4-yl)-N7-((S)-1-((2S,4R)-4-hydroxy-2-(((S)-1-(4-(4-methylthiazol-5-yl)phenyl)ethyl)carbamoyl)pyrrolidin-1-yl)-3,3-dimethyl-1-oxobutan-2-yl)-N1-methylheptanediamide], the concentration for half-maximal inhibition (IC50) (in general, the concentration needed to halve the response being measured) in the assay on MOLT-4 cells lay within 50 to 150 nM. The “BCL-xL degradation in MOLT-4 cells” value at Bcl-xL is given as “induce BCL-xL degradation”.
